{"source": "patent EP0831877B1", "about": "“METABOLIC EFFECTS OF CERTAIN GLUTATHIONE ANALOGS” (TELIK, INC., priority 1995, dated 1996)", "key": {"[1]": {"test": "in vitro half-life / metabolism in mouse blood", "format": "in vitro ADME"}, "[2]": {"test_system": "HT-29 (human colon adenocarcinoma) cells", "test": "modified clonogenic assay, potentiation of chlorambucil cytotoxicity", "format": "cell-based", "settings": "for DMF (dose modification factor), Diethyl ester / DMF of DEE: chlorambucil, mean ±S.D. of 2-3 experiments; for DMF (dose modification factor), Diethyl ester: dose tested 12.5 µM; for DMF of DEE: diethyl ester", "description": "HT-29 (human colon adenocarcinoma) cells were obtained from Dr. Roberto Ceriani (Cancer Research Fund of Contra Costa County, Walnut Creek, CA) and were used in log phase of growth unless otherwise specified. Chlorambucil (CMB) was obtained from Sigma (St. Louis, MO) and was dissolved in 100% ethanol. All GST inhibitors were dissolved in ethanol, DMSO, or water just prior to use. The same amount of solvent added to culture medium served as the vehicle control.\nIn a modified clonogenic assay for cytotoxicity, cells were suspended at 2 x 10^5 cells/ml in serum-free medium in the presence of vehicle or inhibitor. […] Cells were incubated for 2 hours, then varying doses of CMB were added. At the end of a second 2-hour incubation, cells were diluted to 7.5-10 x 10^3/ml in serum-containing medium and plated in quadruplicate at 200 µl/well in Microtest III microtiter plates.\nPlates were incubated for 6 days and assayed by a modified methylene blue method. Briefly, cells were fixed with 1.25% glutaraldehyde in PBS then stained with 0.05% methylene blue in distilled water. Plates were washed several times in distilled water to remove unretained dye and retained dye was resolubilized in 0.03 N HCl. Plates were read at 650 nm in a Molecular Devices Vmax plate reader (Molecular Devices, Redwood City, CA). […] A dose modification factor (DMF), a measure of potentiation of cytotoxicity, was calculated for each inhibitor by dividing the IC50 value of CMB without inhibitor treatment by the IC50 value for CMB with inhibitor treatment."}, "[3]": {"test": "in vitro half-life in human blood", "format": "in vitro ADME"}, "HT-29 cells": {"test_system": "HT-29 cells", "test": "Cytosensor Microphysiometer acidification rates", "format": "cell-based, human", "settings": "4 hours pretreatment, TER199 20 µM, ethacrynic acid 50 µM", "description": "The metabolic effects related to toxicity of the compounds of the invention on HT-29 cells, were tested using a Cytosensor Microphysiometer made by Molecular Devices, Inc., Menlo Park, CA and described in McConnell, H.M. et al. Science (1992) 257:1906-1912 and by Wada, H.G. et al. AATEX (1992) 1:154-164. Changes in pH of the culture medium are measured as a function of cellular metabolism. Acidification rates of the small volume of liquid flowing over the cells correlate with the number of live cells in the reaction chamber; a reduction of acidification rate reflects reduced numbers of surviving cells. […] The medium was then replaced with serum-free low buffer capacity medium and Microphysiometer analysis was initiated."}, "HT4-1 tumors": {"test_system": "HT4-1 tumors", "test": "potentiation of melphalan toxicity in vivo, implanted HT4-1 tumors", "set-up": "species or system Male scid mice", "settings": "for tumor volume as a percentage of control tumor volume: seven days, when control tumors reached 1500 mm^3", "description": "Male scid mice were subcutaneously implanted with HT4-1 tumors from donor mice. HT4-1 is a subclone of HT-29, a human colon cancer. When tumors reached approximately 100 mm^3, the mice were randomized into six treatment groups and treated for seven days as follows: • 1. 5 mg/kg melphalan; • 2. 10 mg/kg ethacrynic acid; • 3. […] 5 mg/kg melphalan + 10 mg/kg ethacrynic acid; • 5.\nThe mice were monitored for weight changes and tumor volumes were determined by measurement with calipers. The tumor growth was monitored until the average tumor size reached 1500 mm^3 for all groups except melphalan with ethacrynic acid.\nThe results were computed in terms of the tumor volume in the drug treated mice as a percentage of control tumor volume (i.e., in the group administered vehicle alone). In group 1, administered melphalan alone, the tumors were approximately 75% of the volume of controls. […] For group 4 administered a combination of melphalan and ethacrynic acid, the volumes were approximately 35% of control. […] (The volume measurements were taken at the time control tumors reached 1500 mm^3.)"}, "bone marrow GM-CFU [4]": {"test_system": "bone marrow GM-CFU", "settings": "melphalan 10 mg/kg i.p. alone"}, "Human GST P1-1": {"target": "Human GST P1-1 (Homo sapiens, UniProt P09211)", "sequence (P09211 2-210 limits assumed)": "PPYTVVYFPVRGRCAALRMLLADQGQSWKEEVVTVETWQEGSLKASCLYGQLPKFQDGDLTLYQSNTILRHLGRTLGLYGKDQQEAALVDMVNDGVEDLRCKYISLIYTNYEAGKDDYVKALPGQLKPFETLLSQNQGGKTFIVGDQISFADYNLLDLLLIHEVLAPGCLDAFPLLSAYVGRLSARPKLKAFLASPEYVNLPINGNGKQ", "test": "inhibition of GST isoenzyme P1-1 (Ki)", "format": "biochemical", "settings": "for Ki: determined on unesterified form"}, "bone marrow GM-CFU [5]": {"test_system": "bone marrow GM-CFU", "test": "stimulation of bone marrow GM-CFU after administration to mice", "format": "in vivo, B6D2F1 mice", "settings": "bone marrow harvested 24 hours after administering", "description": "In an illustrative assay three B6D2F1 mice were treated with various doses of benzyl PG intraperitoneally.\nMice in the control group were injected with water or saline. Bone marrow cells were harvested 24 hours after drug treatment and added to alpha minimum essential medium (alpha MEM) supplemented with methylcellulose (0.8% w/v), fetal bovine serum (20% v/v), deionized BSA (1% w/v), Pokeweed mitogen-stimulated spleen-cell conditioned medium (PWM-SCCM)^1 (10% v/v) and gentamycin (50 Tg/ml). One ml aliquots were plated (four replicate plates) and incubated for seven days at 37 °C. […] Spleens were removed aseptically from four male B6D2F1 mice enforced through a 200 Tm wire mesh screen to obtain a single cell suspension. Ten ml of the suspension (2-4 X 10^7 cell/ml was added to 90 ml alpha-MEM supplemented with 1% deionized BSA, 50 Tg/ml gentamicin, 0.3% freshly reconstituted pokeweed antigen, 10 µM 2-mercaptoethanol. The mixture was incubated for 5 days at […] in a 5% CO2 atmosphere and the result-ing conditioned medium was centrifuged at 800g for ten minutes and filtered through a 0.22 Tm filter. Aliquots were kept frozen at […] until use.\nBone marrow was harvested 24 hours after administering the compounds and GM-CFU levels measured as described above."}, "GST M2-2": {"target": "T1, GST M2-2 (Homo sapiens, UniProt P28161)", "T1 sequence (P28161 1-218)": "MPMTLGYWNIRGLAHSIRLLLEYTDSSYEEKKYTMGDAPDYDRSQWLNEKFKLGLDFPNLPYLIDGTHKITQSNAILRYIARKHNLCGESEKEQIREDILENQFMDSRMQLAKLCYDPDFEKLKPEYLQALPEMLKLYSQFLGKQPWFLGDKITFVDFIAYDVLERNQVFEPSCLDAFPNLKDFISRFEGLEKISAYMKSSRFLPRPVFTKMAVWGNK", "test": "inhibition of GST isoenzyme M2-2 (Ki)", "format": "biochemical", "settings": "determined on unesterified form"}, "GST M1a-1a": {"target": "T2, GST M1a-1a (Homo sapiens, UniProt P09488)", "T2 sequence (P09488 1-218)": "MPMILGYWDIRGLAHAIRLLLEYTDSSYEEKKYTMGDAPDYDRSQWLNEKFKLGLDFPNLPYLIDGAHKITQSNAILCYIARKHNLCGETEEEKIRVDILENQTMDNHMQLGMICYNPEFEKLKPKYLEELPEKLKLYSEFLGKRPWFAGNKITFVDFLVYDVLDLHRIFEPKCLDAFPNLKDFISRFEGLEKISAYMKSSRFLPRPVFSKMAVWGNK", "test": "inhibition of GST isoenzyme M1a-1a (Ki)", "format": "biochemical", "settings": "determined on unesterified form"}, "GST A1-1": {"target": "T3, GST A1-1 (Homo sapiens, UniProt P08263)", "T3 sequence (P08263 1-222)": "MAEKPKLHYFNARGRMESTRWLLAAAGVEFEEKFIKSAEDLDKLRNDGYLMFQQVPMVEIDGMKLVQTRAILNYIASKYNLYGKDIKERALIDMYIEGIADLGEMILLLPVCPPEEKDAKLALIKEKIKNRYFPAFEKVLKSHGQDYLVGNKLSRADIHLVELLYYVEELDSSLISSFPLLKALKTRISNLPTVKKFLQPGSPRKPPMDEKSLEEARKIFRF", "test": "inhibition of GST isoenzyme A1-1 (Ki)", "format": "biochemical", "settings": "determined on unesterified form"}}, "data": [{"molecule": "CCNC(=O)C(N)CCC(=O)NC(CSCc1ccccc1)C(=O)N[C@@H](C(=O)NCC)c1ccccc1", "note": "(stereo partly drawn) [TER278, γE ethyl amide-C(Bz)-R-(-)-ϕG ethyl amide]", "values": [{"measurement": "half-life compared with TER199", "setting": "[1]", "value": "longer half-lives than TER199"}, {"measurement": "DMF for chlorambucil toxicity", "setting": "[2]; HT-29, 200 µM, single experiment", "value": 1.0}, {"measurement": "ability to potentiate chlorambucil compared with TER199", "setting": "[2]; test system not stated", "value": "less able to potentiate chlorambucil"}, {"measurement": "toxicity compared with TER199", "setting": "[2]; test system not stated", "value": "less toxic"}, {"measurement": "half-life, comparison of the three compounds", "setting": "[3]", "value": "approximately the same"}]}, {"molecule": "C=C(CC)C(=O)c1ccc(OCC(=O)O)c(Cl)c1Cl", "note": "[ethacrynic acid, reference compound]", "values": [{"measurement": "effect on acidification rates, compound alone (Figure 2)", "setting": "HT-29 cells; no chlorambucil", "value": "Neither γE-C(Bz)-ϕG diethylester (TER199) nor ethacrynic acid alone had any appreciable effect"}, {"measurement": "effect of pretreatment on acidification rates with chlorambucil (Figure 2)", "setting": "HT-29 cells; then 100 µM chlorambucil", "value": "potentiated the effect of chlorambucil"}, {"measurement": "time until average tumor size reached 1500 mm^3", "setting": "HT4-1 tumors; 5 mg/kg melphalan + 10 mg/kg ethacrynic acid, volume not reached", "value": "> 72", "unit": "days"}, {"measurement": "tumor volume as a percentage of control tumor volume", "setting": "HT4-1 tumors; group 4: 5 mg/kg melphalan + 10 mg/kg ethacrynic acid", "value": "approximately 35%"}]}, {"molecule": "N[C@@H](Cc1ccc(N(CCCl)CCCl)cc1)C(=O)O", "note": "[melphalan, reference compound]", "values": [{"measurement": "tumor volume as a percentage of control tumor volume", "setting": "HT4-1 tumors; group 1: 5 mg/kg melphalan alone", "value": "approximately 75%"}, {"measurement": "GM-CFU remaining", "setting": "bone marrow GM-CFU [4]", "value": 2, "unit": "%"}]}, {"molecule": "CCCCCCSC[C@H](NC(=O)CC[C@H](N)C(=O)OCC)C(=O)NC(C(=O)OCC)c1ccccc1", "note": "(some centres unmarked) [γE-C(Hx)-ϕG diethyl ester, γE-C(Hx)-ϕG]", "values": [{"measurement": "DMF (dose modification factor), Diethyl ester", "setting": "[2]; HT-29", "value": "1.27±0.02"}, {"measurement": "DMF of DEE", "setting": "[2]", "value": 1.272}]}, {"molecule": "γE-C(Bz) (S+)-fA [TER317]", "values": [{"measurement": "Ki", "setting": "Human GST P1-1", "value": "> 1000", "unit": "µM"}, {"measurement": "effect on GM-CFU, analogs of TER199 (Figure 8)", "setting": "bone marrow GM-CFU [5]", "value": "inactive"}, {"measurement": "Ki", "setting": "GST M2-2", "value": "> 1000", "unit": "µM"}, {"measurement": "Ki", "setting": "GST M1a-1a", "value": "> 1000", "unit": "µM"}, {"measurement": "Ki", "setting": "GST A1-1", "value": "> 1000", "unit": "µM"}]}, {"molecule": "γE-C(naphthyl)-G [TER206]", "values": [{"measurement": "Ki", "setting": "Human GST P1-1", "value": 1.2, "unit": "µM"}, {"measurement": "effect on GM-CFU, analogs of TER199 (Figure 8)", "setting": "bone marrow GM-CFU [5]", "value": "inactive"}, {"measurement": "Ki", "setting": "GST M2-2", "value": 1.5, "unit": "µM"}, {"measurement": "DMF (dose modification factor), Diethyl ester", "setting": "[2]; HT-29", "value": "1.21±0.01"}, {"measurement": "DMF of DEE", "setting": "[2]", "value": 1.213}, {"measurement": "Ki", "setting": "GST M1a-1a", "value": 0.01, "unit": "µM"}, {"measurement": "Ki", "setting": "GST A1-1", "value": 4.2, "unit": "µM"}]}, {"molecule": "γE-C(naphthyl)-G [TER211]", "values": [{"measurement": "Rank order", "setting": "Human GST P1-1; rank of Ki for Human GST P1-1", "value": 3}]}]}
